Assays:
[1] = target: T1, cellular tyrosinase in B16F10 cells (Mus musculus, UniProt P11344); experiment: Cellular tyrosinase activity (L-DOPA oxidation) in α-MSH/IBMX-stimulated cells; type: cell-based, murine
T1 construct: endogenous in cells; host or cells: B16F10 murine melanoma cells, stimulated with alpha-MSH and IBMX
T1 sequence (P11344 19-533): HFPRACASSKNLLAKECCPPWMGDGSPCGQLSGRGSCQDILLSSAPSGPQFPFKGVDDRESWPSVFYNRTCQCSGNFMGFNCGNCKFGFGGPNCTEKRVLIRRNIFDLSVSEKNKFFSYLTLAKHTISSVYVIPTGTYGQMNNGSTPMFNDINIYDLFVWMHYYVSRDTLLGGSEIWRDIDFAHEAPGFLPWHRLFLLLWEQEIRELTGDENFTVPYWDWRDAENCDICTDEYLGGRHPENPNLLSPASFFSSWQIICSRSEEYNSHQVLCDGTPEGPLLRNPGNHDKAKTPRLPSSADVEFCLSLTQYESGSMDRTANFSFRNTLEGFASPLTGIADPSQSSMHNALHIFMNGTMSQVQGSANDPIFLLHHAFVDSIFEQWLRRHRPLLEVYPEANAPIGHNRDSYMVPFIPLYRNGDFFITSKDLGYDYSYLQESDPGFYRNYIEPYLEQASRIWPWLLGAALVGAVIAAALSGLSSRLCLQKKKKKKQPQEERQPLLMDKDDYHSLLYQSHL
Procedure: Cellular tyrosinase activity was assessed by measuring the oxidation rate of L-DOPA as previously described, with minor modifications. In brief, B16F10 cells were seeded in a 6-well plate at 1 × 10^5 cells/well, and allowed to adhere to well bottoms for 24 h, as described in Section 2.3.5. […]. Cells were then rinsed twice with PBS, exposed to 100 µL of lysis buffer solution (90 µL of 50 mM phosphate buffer (pH 6.5), 5 µL of 2 mM PMSF, and 5 µL of 20% Triton X-100), and lysed at −80 °C for 30 min. After defrosting, cell lysates were transferred to microcentrifuge tubes and centrifuged at 12,000 rpm for 30 min at 4°C, and supernatants (80 µL) were mixed with 20 µL of L-DOPA (2 mg/mL) in a 96-well plate, and incubated for 10 min at 37 °C. Absorbances were measured at 475 nm using a microplate reader (VersaMax^TM, Molecular Devices, Sunnyvale, CA, USA).

[2] = tested on: B16F10 murine melanoma cells; experiment: Extracellular melanin content (melanin release into medium) in α-MSH/IBMX-stimulated cells; type: cell-based
Procedure: The anti-melanogenic activities of 1a and 1b were determined using a standard melanin content assay, with minor changes. Briefly, B16F10 cells were seeded in the wells of a 6-well plate at a density of 1 × 10^5 cells/well, and allowed to adhere to well bottoms over 24 h under the conditions used for cell culture (Section 2.3.5). […] Absorbances of culture media at 405 nm were used to determine extracellular melanin contents.

[3] = tested on: B16F10 murine melanoma cells; experiment: Intracellular melanin content in α-MSH/IBMX-stimulated cells; type: cell-based
Procedure: The cultured cells were rinsed with PBS twice and pellets were dissolved in 200 µL of 1N-NaOH solution containing 10% DMSO for 1 h at 60 °C. Cell lysates were then transferred to a 96-well plate, and the melanin absorbances were measured in aqueous DMSO at 405 nm using a microplate reader (VersaMax^TM, Molecular Devices, Sunnyvale, CA, USA).

[4] = target: T2, mushroom tyrosinase (Agaricus bisporus, UniProt C7FF04); experiment: Mushroom tyrosinase inhibition assay; type: biochemical
T2 construct: purchased Sigma-Aldrich
T2 sequence (C7FF04 1-392 limits assumed): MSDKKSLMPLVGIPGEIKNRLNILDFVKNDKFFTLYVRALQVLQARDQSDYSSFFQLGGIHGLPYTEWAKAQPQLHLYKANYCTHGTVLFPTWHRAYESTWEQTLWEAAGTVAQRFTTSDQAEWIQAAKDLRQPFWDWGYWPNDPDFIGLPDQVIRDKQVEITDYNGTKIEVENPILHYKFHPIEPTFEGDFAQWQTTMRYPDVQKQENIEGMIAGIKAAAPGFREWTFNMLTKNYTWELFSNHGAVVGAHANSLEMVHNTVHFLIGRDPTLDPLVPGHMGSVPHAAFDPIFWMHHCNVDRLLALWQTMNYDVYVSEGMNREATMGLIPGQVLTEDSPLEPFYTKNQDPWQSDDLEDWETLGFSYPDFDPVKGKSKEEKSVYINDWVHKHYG
Procedure: Mushroom tyrosinase inhibitory activity was determined as described previously, with minor modifications. L-Tyrosine was used as a substrate to determine enzyme activities. […] These dose-dependent inhibition experiments were carried out three times using three to five different concentrations of test compounds to determine IC50 values. Log–linear curves and their equations were derived from the observed percentages of inhibition.

[5] = tested on: B16F10 murine melanoma cells; experiment: B16F10 cell viability assay (EZ-Cytox); type: cell-based; conditions: concentrations ≤20 μM, 48 h
Procedure: B16F10 murine melanoma cells were obtained from the American Type Culture Collection (ATCC, Manassas, VA, USA). Phosphate buffer solution (PBS), Dulbecco’s modified Eagle’s medium (DMEM), streptomycin, penicillin, trypsin, and fetal bovine serum (FBS) were purchased from Gibco/Thermo Fisher Scientific (Carlsbad, CA, USA). B16F10 cells were cultured in a DMEM solution comprising 10% heat-inactivated FBS, penicillin (100 IU/mL), and streptomycin (100 µg/mL), at 37 °C in a humidified 5% CO2 atmosphere. Experiments for anti-melanogenesis activity, cell viability, and anti-tyrosinase activity were assayed on these cells in 96- or 6-well culture plates.
Cell viability assays for B16F10 were performed using the EZ-Cytox assay (EZ-3000, DoGenBio, Seoul, Korea). In brief, B16F10 cells were seeded in a 96-well plate at a density of 1 × 10^4 cells/well, and cultured at 37 °C for 24 h in a humidified 5% CO2 atmosphere. The next day, B16F10 cells were exposed to six concentrations of 1a or 1b (0, 1, 2, 5, 10, or 20 μM), and incubated under the same conditions for 48 h. Then, the EZ-Cytox solution (10 μL) was added to each well, and the cells mixed with the EZ-Cytox solution were further incubated for 2 h. At 450 nm, optical densities were measured using a microplate reader (VersaMax^TM, Molecular Devices, Sunnyvale, CA, USA).

[6] = 10 µM, compared with kojic acid 20 µM
[7] = read-out: Mushroom tyrosinase inhibition (%)

Question: Which cellular tyrosinase activity [1, 6] does the source give for `Oc1ccc(-c2nc3cc(C(F)(F)F)ccc3s2)cc1` [Compound 1a, 4-(5-(Trifluoromethyl)benzo[d]thiazol-2-yl)phenol] here?
Answer: reduced tyrosinase activity to that achieved by 20 µM kojic acid

Question: What about the “effect on cellular tyrosinase activity” value ([1]; 5, 10, 20 µM, IBMX + α-MSH, 48 h) of the same compound?
Answer: significantly and concentration-dependently suppressed

Question: What about the melanin release ([2]; 20 µM) of the same compound?
Answer: reduced melanin release to control levels

Question: What about the “effect on melanin content in media” value ([2]; 5, 10, 20 µM, α-MSH (1 µM) + IBMX (200 µM), 48 h) of the same compound?
Answer: concentration-dependently and significantly reduced melanin content increases

Question: What about the “inhibition of α-MSH/IBMX-induced intracellular melanin increase” value [3, 6] of the same compound?
Answer: more potently inhibited α-MSH/IBMX-induced increases in melanin than kojic acid at 20 µM

Question: And the “effect on intracellular melanin content” value ([3]; 5, 10, 20 µM, α-MSH + IBMX, 48 h)?
Answer: significantly and concentration-dependently reduced intracellular melanin increases

Question: And the IC50 ([4]; L-tyrosine as substrate)?
Answer: 54.2 ± 0.82 µM

Question: What about the inhibition at 10 µM [4, 7] of the same compound?
Answer: 30.4 ± 0.31%

Question: And the inhibition at 50 µM [4, 7]?
Answer: 48.2 ± 0.25%

Question: What about the melting point of the same compound?
Answer: 187.2 to 188.9 °C

Question: What about the “cytotoxic effect on B16F10 cell viability” value [5] of the same compound?
Answer: Neither compound exhibited a significant cytotoxic effect

Source: paper PMC9311798, “A Novel Class of Potent Anti-Tyrosinase Compounds with Antioxidant Activity, 2-(Substituted phenyl)-5-(trifluoromethyl)benzo[d]thiazoles: In Vitro and In Silico Insights” (Antioxidants, 2022)
